Measurements reported in patent US11005049B2, “Metal complexes” (priority 2013, dated 2021).
Several values for one entry are separate records, joined by “and”; a condition that tells them apart may be missing. Equal values may be shown once. Read-outs that look alike come from different tables or passages of the source.

What was measured:
[1] = test system: Salmonella typhimurium strain TA100
Protocol: Compounds V1 and E2 are subjected to a standardised AMES test (bacteria: Salmonella typhimurium; strains TA98, TA100 and TA102). […] The test is carried out by the person skilled in the art employing standard methods which are well known in the prior art. The solvent used is DMSO (dimethyl sulfoxide).
The test is carried out both without and also with metabolic activation using an S9 mix.

[2] = test system: Salmonella typhimurium strain TA102; assay: standardised AMES test, strain TA102; assay type: cell-based
[3] = test system: Salmonella typhimurium; strains TA98, TA100 and TA102; assay: standardised AMES test, overall mutagenicity finding; assay type: cell-based
Description: (§1) The solvent used is DMSO (dimethyl sulfoxide).

[4] = test system: Salmonella typhimurium strain TA98; assay: standardised AMES test, strain TA98; assay type: cell-based
Description: as §1

[5] = metabolic activation using S9 mix, 5 μg/plate
[6] = metabolic activation using S9 mix, 15.8 μg/plate
[7] = metabolic activation using S9 mix, 50 μg/plate
[8] = metabolic activation using S9 mix, 158 μg/plate
[9] = metabolic activation using S9 mix, 500 μg/plate
[10] = metabolic activation using S9 mix, 1580 μg/plate
[11] = metabolic activation using S9 mix, 5000 μg/plate
[12] = no metabolic activation, 5 μg/plate
[13] = no metabolic activation, 15.8 μg/plate
[14] = no metabolic activation, 50 μg/plate
[15] = no metabolic activation, 158 μg/plate
[16] = no metabolic activation, 500 μg/plate
[17] = no metabolic activation, 1580 μg/plate
[18] = no metabolic activation, 5000 μg/plate

[N-]=[N+]=[N-] [NaN3, sodium azide, reference compound]
Revertants/plate (mean ± SD) TA100 ([1]; no metabolic activation, 2 μg/plate, reference): 1090 ± 35 Revertants/plate and 743 ± 52 Revertants/plate

CC(C)(C)c1ccc2cccc(O)c2n1.[Li] [Compound E2, lithium 2-tert-butyl-8-hydroxyquinoline]
Revertants/plate (mean ± SD) TA102 [2, 5]: 302 ± 18 Revertants/plate
Revertants/plate (mean ± SD) TA102 [2, 6]: 255 ± 8 Revertants/plate
Revertants/plate (mean ± SD) TA102 [2, 7]: 245 ± 22 Revertants/plate
Revertants/plate (mean ± SD) TA102 [2, 8]: 142 ± 22^S Revertants/plate
Revertants/plate (mean ± SD) TA102 [2, 9]: 89 ± 11^SB Revertants/plate
Revertants/plate (mean ± SD) TA102 [2, 10]: 62 ± 3^SB Revertants/plate
Revertants/plate (mean ± SD) TA102 [2, 11]: 37 ± 1^SE Revertants/plate
Revertants/plate (mean ± SD) TA102 [2, 12]: 224 ± 6 Revertants/plate
Revertants/plate (mean ± SD) TA102 [2, 13]: 217 ± 41 Revertants/plate
Revertants/plate (mean ± SD) TA102 [2, 14]: 237 ± 11 Revertants/plate
Revertants/plate (mean ± SD) TA102 [2, 15]: 180 ± 11^S Revertants/plate
Revertants/plate (mean ± SD) TA102 [2, 16]: 124 ± 1^SB Revertants/plate
Revertants/plate (mean ± SD) TA102 [2, 17]: 51 ± 18^SB Revertants/plate
Revertants/plate (mean ± SD) TA102 [2, 18]: 25 ± 1^SE Revertants/plate
mutagenic effect in AMES test ([3]; both without and with metabolic activation using an S9 mix): No mutagenic effect
Revertants/plate (mean ± SD) TA98 [4, 5]: 24 ± 6 Revertants/plate
Revertants/plate (mean ± SD) TA98 [4, 6]: 30 ± 2 Revertants/plate
Revertants/plate (mean ± SD) TA98 [4, 7]: 33 ± 4 Revertants/plate
Revertants/plate (mean ± SD) TA98 [4, 8]: 30 ± 3^S Revertants/plate
Revertants/plate (mean ± SD) TA98 [4, 9]: 25 ± 7^SB Revertants/plate
Revertants/plate (mean ± SD) TA98 [4, 10]: 18 ± 5^SB Revertants/plate
Revertants/plate (mean ± SD) TA98 [4, 11]: 13 ± 1^SE Revertants/plate
Revertants/plate (mean ± SD) TA98 [4, 12]: 23 ± 11 Revertants/plate
Revertants/plate (mean ± SD) TA98 [4, 13]: 29 ± 3 Revertants/plate
Revertants/plate (mean ± SD) TA98 [4, 14]: 18 ± 6 Revertants/plate
Revertants/plate (mean ± SD) TA98 [4, 15]: 20 ± 6^S Revertants/plate
Revertants/plate (mean ± SD) TA98 [4, 16]: 14 ± 8^SB Revertants/plate
Revertants/plate (mean ± SD) TA98 [4, 17]: 10 ± 4^SB Revertants/plate
Revertants/plate (mean ± SD) TA98 [4, 18]: 17 ± 6^SE Revertants/plate
Revertants/plate (mean ± SD) TA100 [1, 5]: 199 ± 4 Revertants/plate
Revertants/plate (mean ± SD) TA100 [1, 6]: 132 ± 11 Revertants/plate
Revertants/plate (mean ± SD) TA100 [1, 7]: 143 ± 8 Revertants/plate
Revertants/plate (mean ± SD) TA100 [1, 8]: 147 ± 8^S Revertants/plate
Revertants/plate (mean ± SD) TA100 [1, 9]: 108 ± 1^SB Revertants/plate
Revertants/plate (mean ± SD) TA100 [1, 10]: 57 ± 16 Revertants/plate
Revertants/plate (mean ± SD) TA100 [1, 11]: 4 ± 3 Revertants/plate
Revertants/plate (mean ± SD) TA100 [1, 12]: 142 ± 25 Revertants/plate
Revertants/plate (mean ± SD) TA100 [1, 13]: 133 ± 8 Revertants/plate
Revertants/plate (mean ± SD) TA100 [1, 14]: 104 ± 12 Revertants/plate
Revertants/plate (mean ± SD) TA100 [1, 15]: 103 ± 1^S Revertants/plate
Revertants/plate (mean ± SD) TA100 [1, 16]: 62 ± 17^SB Revertants/plate
Revertants/plate (mean ± SD) TA100 [1, 17]: 41 ± 2 Revertants/plate
Revertants/plate (mean ± SD) TA100 [1, 18]: 7 ± 3 Revertants/plate

Oc1cccc2cccnc12.[Li] [Liq, lithium 8-hydroxyquinoline, reference compound]
Revertants/plate (mean ± SD) TA102 [2, 5]: 559 ± 8 Revertants/plate
Revertants/plate (mean ± SD) TA102 [2, 6]: 697 ± 8 Revertants/plate
Revertants/plate (mean ± SD) TA102 [2, 7]: 1469 ± 27 Revertants/plate
Revertants/plate (mean ± SD) TA102 [2, 8]: 911 ± 269 Revertants/plate
Revertants/plate (mean ± SD) TA102 [2, 12]: 344 ± 33 Revertants/plate
Revertants/plate (mean ± SD) TA102 [2, 13]: 270 ± 30 Revertants/plate
Revertants/plate (mean ± SD) TA102 [2, 14]: 257 ± 59 Revertants/plate
mutagenicity in AMES test ([3]; all three bacteria strains, in the presence of metabolic activation): significant mutagenicity
Revertants/plate (mean ± SD) TA98 [4, 5]: 31 ± 11 Revertants/plate
Revertants/plate (mean ± SD) TA98 [4, 6]: 40 ± 2 Revertants/plate
Revertants/plate (mean ± SD) TA98 [4, 7]: 87 ± 1 Revertants/plate
Revertants/plate (mean ± SD) TA98 [4, 8]: 100 ± 4 Revertants/plate
Revertants/plate (mean ± SD) TA98 [4, 12]: 23 ± 2 Revertants/plate
Revertants/plate (mean ± SD) TA98 [4, 13]: 20 ± 4 Revertants/plate
Revertants/plate (mean ± SD) TA98 [4, 14]: 22 ± 1 Revertants/plate
